Patent US20020137929A1, “1 - (3-heterocyclylphenyl) isothiourea, -isourea, -guanidine and -amidine herbicidal agents” (Intellectual Property Department, BASF Aktiengesellschaft, priority 1998, published 2002)

What was measured:
[1] = system: CYPSE (Flatsedge); assay: Preemergence weed control under flooded paddy conditions; assay type: in vivo, Cyperus serotinus; settings: rated 3-4 weeks after treatment
Method in brief: (§1)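 Visual injury scored 0-9 against control three to four weeks post-treatment, greenhouse-grown. Application: acetone/water (50/50) solutions dosed directly into flood water (1.5-3 cm over silt loam, planted top 0.5 cm), roughly 0.0313 to 0.500 kg/ha active ingredient.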

[2] = system: ECHORC (Watergrass (Calif.)); assay: as above; assay type: in vivo, Echinochloa oryzoides; settings: rated 3-4 weeks after treatment
Method in brief: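 Herbicidal effect is scored visually on a 0-9 scale against an untreated control, three to four weeks after compounds are pipetted into the flood water (1.5 to 3 cm deep) over seeds planted in silt loam at 0.5 cm depth. Rates: about 0.0313 to 0.500 kg/ha.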

[3] = system: SAGPY (Arrowhead (Pygmaea)); assay: as above; assay type: in vivo, Sagittaria pygmaea; settings: rated 3-4 weeks after treatment
Method in brief: as §1

[4] = system: ABUTH (Velvetleaf); assay: Postemergence herbicidal evaluation; assay type: in vivo, Abutilon theophrasti; settings: postemergence
Method in brief: (§2)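 Rate range approx. 0.0156–0.500 kg/ha. Foliar application at 40 psi to ~2-week seedlings; surfactant 0.5% TWEEN 20 in 50/50 acetone/water. Evaluation 4–5 wk post-treatment by 0–9 visual injury score, means of replicate tests.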

[5] = system: TRZAWR (Wheat, Winter, cv Riband); assay: Preemergence herbicidal evaluation; assay type: in vivo, Triticum aestivum; settings: rated 4-5 weeks after treatment
Method in brief: (§3)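 Scores use a 0–9 visual scale covering stand, vigor, malformation, size and chlorosis relative to controls, rated four to five weeks after treatment. Before emergence, soil-planted seeds were sprayed with compound in aqueous acetone at roughly 0.0156–0.500 kg/ha and held in the greenhouse.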

[6] = system: CASOB (Sicklepod); assay: Postemergence herbicidal evaluation; assay type: in vivo, Cassia obtusifolia; settings: postemergence
Method in brief: as §2

[7] = system: GALAP (Galium); assay: Postemergence herbicidal evaluation; assay type: in vivo, Galium aparine; settings: postemergence
Method in brief: as §2

[8] = system: ORYSAT (Rice, Tebonnet); assay: Rice tolerance to post-transplant applications, flooded paddy conditions (Table III); assay type: in vivo, Oryza sativa, (L.) Tebonnet; settings: in vivo
Method in brief: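 Injury scored 0-9 by eye against untreated control, judging stand, vigor, malformation, size and chlorosis, three to four weeks after treatment. Compound in 50/50 aqueous/acetone, about 0.0313 to 0.500 kg/ha, was applied to paddy water (1.5 to 3 cm depth) three days after transplanting paired ten-day-old Tebonnet rice seedlings.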

[9] = system: ZEAMX (Corn, Field); assay: Postemergence herbicidal evaluation; assay type: in vivo, Zea mays; settings: postemergence
Method in brief: as §2

[10] = system: TRZAWR (Wheat, Winter, cv Riband); assay: Postemergence herbicidal evaluation; assay type: in vivo, Triticum aestivum; settings: postemergence
Method in brief: as §2

[11] = system: ECHCG (Barnyardgrass); assay: Postemergence herbicidal evaluation; assay type: in vivo, Echinochloa crus-galli; settings: postemergence
Method in brief: as §2

[12] = system: MOOVA (Monochoria); assay: Preemergence weed control under flooded paddy conditions; assay type: in vivo, Monochoria vaginalis; settings: rated 3-4 weeks after treatment
Method in brief: as §1

[13] = system: ORYSAT (Rice, Tebonnet); assay: Preemergence herbicidal evaluation; assay type: in vivo, Oryza sativa, (L.) Tebonnet; settings: rated 4-5 weeks after treatment
Method in brief: as §3

[14] = system: GLXMAW (Soybean, Williams); assay: Preemergence herbicidal evaluation; assay type: in vivo, Glycine max, (L.) Merr. cv Williams; settings: rated 4-5 weeks after treatment
Method in brief: as §3

CCOC(=O)CN1C(=O)C(Cc2ccccc2OCC(=O)O)S/C1=N/c1cc(-n2c(=O)cc(C(F)(F)F)n(C)c2=O)c(F)cc1Cl (centres unmarked) [Compound 113, 5-[o-(Carboxymethoxy)benzyl]-2-{{2-chloro-5-[3,6-dihydro-3-methyl-2,6-dioxo-4-(trifluoromethyl)-1(2H)-pyrimidinyl]-4-fluorophenyl}imino}-4-oxo-3-thiazolidineacetic acid, 3-ethyl ester]
CYPSE herbicidal effect rating ([1]; 0.0313 kg/ha): 0.0
CYPSE herbicidal effect rating ([1]; 0.0625 kg/ha): 0.0
CYPSE herbicidal effect rating ([1]; 0.1250 kg/ha): 0.0
CYPSE herbicidal effect rating ([1]; 0.2500 kg/ha): 0.0
ECHORC herbicidal effect rating ([2]; 0.0313 kg/ha): 4.0
ECHORC herbicidal effect rating ([2]; 0.0625 kg/ha): 4.0
ECHORC herbicidal effect rating ([2]; 0.1250 kg/ha): 5.0
ECHORC herbicidal effect rating ([2]; 0.2500 kg/ha): 7.0
SAGPY herbicidal effect rating ([3]; 0.0313 kg/ha): 4.0
SAGPY herbicidal effect rating ([3]; 0.0625 kg/ha): 6.0
SAGPY herbicidal effect rating ([3]; 0.1250 kg/ha): 9.0
SAGPY herbicidal effect rating ([3]; 0.2500 kg/ha): 9.0
Herbicidal rating ABUTH ([4]; rate 0.0158 kg/ha): 9.0
Herbicidal rating ABUTH ([4]; rate 0.0315 kg/ha): 9.0
Herbicidal rating ABUTH ([4]; rate 0.0630 kg/ha): 9.0
Preemergence herbicidal rating TRZAWR ([5]; rate 0.0156 kg/ha): 0.0
Preemergence herbicidal rating TRZAWR ([5]; rate 0.0313 kg/ha): 0.0
Preemergence herbicidal rating TRZAWR ([5]; rate 0.0625 kg/ha): 0.0
Preemergence herbicidal rating TRZAWR ([5]; rate 0.1250 kg/ha): 0.0
Preemergence herbicidal rating TRZAWR ([5]; rate 0.2500 kg/ha): 0.0
Herbicidal rating CASOB ([6]; rate 0.0158 kg/ha): 0.0
Herbicidal rating CASOB ([6]; rate 0.0315 kg/ha): 0.0
Herbicidal rating CASOB ([6]; rate 0.0630 kg/ha): 4.0
Herbicidal rating GALAP ([7]; rate 0.0158 kg/ha): 1.0
Herbicidal rating GALAP ([7]; rate 0.0315 kg/ha): 0.0
Herbicidal rating GALAP ([7]; rate 0.0630 kg/ha): 2.0
ORYSAT herbicidal effect rating (rice tolerance) [8]: 0.0
Herbicidal rating ZEAMX ([9]; rate 0.0158 kg/ha): 4.0
Herbicidal rating ZEAMX ([9]; rate 0.0315 kg/ha): 4.5
Herbicidal rating ZEAMX ([9]; rate 0.0630 kg/ha): 4.5
Herbicidal rating TRZAWR ([10]; rate 0.0158 kg/ha): 2.0
Herbicidal rating TRZAWR ([10]; rate 0.0315 kg/ha): 2.0
Herbicidal rating TRZAWR ([10]; rate 0.0630 kg/ha): 3.0
Herbicidal rating ECHCG ([11]; rate 0.0158 kg/ha): 0.0
Herbicidal rating ECHCG ([11]; rate 0.0315 kg/ha): 1.0
Herbicidal rating ECHCG ([11]; rate 0.0630 kg/ha): 1.0
MOOVA herbicidal effect rating ([12]; 0.0313 kg/ha): 9.0
MOOVA herbicidal effect rating ([12]; 0.0625 kg/ha): 9.0
MOOVA herbicidal effect rating ([12]; 0.1250 kg/ha): 9.0
MOOVA herbicidal effect rating ([12]; 0.2500 kg/ha): 9.0
Preemergence herbicidal rating ORYSAT ([13]; rate 0.0156 kg/ha): 0.0
Preemergence herbicidal rating ORYSAT ([13]; rate 0.0313 kg/ha): 0.0
Preemergence herbicidal rating ORYSAT ([13]; rate 0.0625 kg/ha): 0.0
Preemergence herbicidal rating ORYSAT ([13]; rate 0.1250 kg/ha): 0.0
Preemergence herbicidal rating ORYSAT ([13]; rate 0.2500 kg/ha): 0.0
Preemergence herbicidal rating GLXMAW ([14]; rate 0.0156 kg/ha): 0.0
Preemergence herbicidal rating GLXMAW ([14]; rate 0.0313 kg/ha): 1.0
Preemergence herbicidal rating GLXMAW ([14]; rate 0.0625 kg/ha): 0.0
Preemergence herbicidal rating GLXMAW ([14]; rate 0.1250 kg/ha): 0.0
Preemergence herbicidal rating GLXMAW ([14]; rate 0.2500 kg/ha): 2.0
